{"source": "patent US20230414602A1", "about": "“PHARMACEUTICAL COMPOSITION COMPRISING INSOLUBLE CAMPTOTHECIN COMPOUND-CONTAINING NANOPARTICLE FOR TREATMENT OF CANCER AND COMBINATION THERAPY THEREOF” (SNBioScience Inc., priority 2020, published 2023)", "key": {"[1]": {"experiment": "Body weight of A549 xenograft mice (Example 4)", "assay_type": "in vivo, BALB/c nu/nu male mice", "experimental": "(§1) Tumor volume and body weight were measured twice a week (intervals of 3 or 4 days) from the time of grouping to the end of the test, and a tumor growth curve was constructed from the start of drug administration to the end of the test."}, "MDA-MB-231": {"tested_on": "MDA-MB-231", "experiment": "Breast cancer MDA-MB-231 xenograft, tumor volume and TGI (Example 4)", "assay_type": "in vivo, BALB/c nu/nu male mice", "conditions": "docetaxel 5->15 mg/kg, SNB-101 20 mg/kg (as SN-38), i.v. Q1W x 6", "experimental": "(§2) The thawed cells were cultured for one week or longer, with passages every two or three days. The cells were assayed for viability (trypan blue) and infection with bacteria and yeasts (cell images) and mycoplasma (MycoAlert Mycoplasma detection kit).\nas §1\n(§3) As of the end of the experiment, relative tumor growth inhibition (TGI) to the vehicle was calculated using the following equation.\nTumor growth inhibition (TGI) (%)={1−(ΔT/ΔC)}×100 Equation 2"}, "[2]": {"experiment": "Body weight of MDA-MB-231 xenograft mice (Example 4)", "assay_type": "in vivo, BALB/c nu/nu male mice", "experimental": "as §1"}, "A549": {"tested_on": "A549", "experiment": "Lung cancer A549 xenograft, tumor volume and TGI (Example 4)", "assay_type": "in vivo, BALB/c nu/nu male mice", "conditions": "docetaxel 5->10 mg/kg, SNB-101 20 mg/kg (as SN-38), i.v. Q1W x 5", "experimental": "as §2, §1, §3\nTumor growth inhibition (TGI)(%)={1−(ΔT/ΔC)}×100 Equation 2"}, "[3]": {"tested_on": "HT-29 colorectal cancer cells", "experiment": "HT-29 colorectal cancer xenograft, tumor volume (Example 5)", "assay_type": "in vivo, BALB/c nude mice", "excerpt": "A total of 150 BALB/c nude mice (5-week-old males) were obtained and acclimatized for about one week before transplantation of HT-29 colorectal cancer cells into the subcutaneous area of the right hip. […] after transplantation, 50 mice were selected on the basis of the tumor volume and classified into five groups of 10.\n[…] after transplantation of the HT-29 colorectal cancer cells, mice were selected based on the tumor volume and randomly divided into 5 groups (10 mice/group). The drug administration group was set as in Table 13, below.\nAn autopsy was performed on day 28. A 5% dextrose solution used as a vehicle for the control was equally administered at a dose of 10 mL/kg.\nTest results are expressed as mean±S.D. in Table 14, below."}, "AsPC-1 cells": {"tested_on": "AsPC-1 cells", "experiment": "AsPC-1 pancreatic cancer xenograft, tumor volume and tumor weight (Example 2)", "conditions": "excised day 22; nab-paclitaxel 5, irinotecan HCl 50, SNB-101 low dose 10/15.9 mg/kg/day", "from_the_text": "As a pancreatic cancer cell line for a pancreatic cancer xenograft model, AsPC-1 was used. AsPC-1 cells are aggressive cells and are known to have resistance to gemcitabine."}, "[4]": {"experiment": "Body weight of AsPC-1 xenograft mice (Example 2)", "assay_type": "in vivo, BALB/c nu/nu male mice"}}, "note": "Structures can show the parent of a compound that is named as a salt.", "data": [{"compound": "CC(=O)O[C@@]12CO[C@@H]1C[C@H](O)[C@@]1(C)C(=O)[C@H](O)C3=C(C)[C@@H](OC(=O)[C@H](O)[C@@H](NC(=O)OC(C)(C)C)c4ccccc4)C[C@@](O)([C@@H](OC(=O)c4ccccc4)[C@H]21)C3(C)C", "note": "[Docetaxel, docetaxel]", "values": [{"measurement": "Body weight at the start of drug administration (day 0)", "setting": "[1]", "value": 17.93, "unit": "g"}, {"measurement": "average tumor volume", "setting": "MDA-MB-231; end of experiment (35 days after drug administration)", "value": "1,228.93 mm3"}, {"measurement": "TGI (%)", "setting": "MDA-MB-231; relative to vehicle, end of experiment (day 35)", "value": 27.6, "unit": "%"}, {"measurement": "Body weight at the start of drug administration (day 0)", "setting": "[2]; day 0, MDA-MB-231 xenograft mice", "value": 19.63, "unit": "g"}, {"measurement": "Body weight at the end of the test (day 35)", "setting": "[2]; day 35, docetaxel 5->15 mg/kg, SNB-101 20 mg/kg (as SN-38), i.v. Q1W x 6", "value": 20.25, "unit": "g"}, {"measurement": "average tumor volume", "setting": "A549; end of experiment (37 days after drug administration)", "value": 402.70, "unit": "mm3"}, {"measurement": "TGI (%)", "setting": "A549; relative to vehicle, end of experiment (day 37)", "value": 50.0, "unit": "%"}]}, {"compound": "Bevacizumab: monoclonal antibody and target anticancer drug (trade name Avastin)", "values": [{"measurement": "Tumor volume (mm^3) Test start A (day 1)", "setting": "[3]; day 1, SNB-101 20/31.8 mg/kg venous, bevacizumab 5 mg/kg peritoneal, irinotecan 50 mg/kg venous, days 1, 4, 7", "value": "96.67 ± 14.79", "unit": "mm^3"}, {"measurement": "Tumor volume (mm^3) Test end B (day 28)", "setting": "[3]; day 28, SNB-101 20/31.8 mg/kg venous, bevacizumab 5 mg/kg peritoneal, irinotecan 50 mg/kg venous, days 1, 4, 7", "value": "709.38 ± 266.87", "unit": "mm^3"}, {"measurement": "Tumor Volume Change (mm^3) [B − A]", "setting": "[3]; day 28 minus day 1, SNB-101 20/31.8, bevacizumab 5, irinotecan 50 mg/kg", "value": "612.71 ± 259.64", "unit": "mm^3"}]}, {"compound": "CCc1c2c(nc3ccc(OC(=O)N4CCC(N5CCCCC5)CC4)cc13)-c1cc3c(c(=O)n1C2)COC(=O)[C@]3(O)CC", "note": "[Irinotecan HCl, irinotecan hydrochloride]", "values": [{"measurement": "Tumor weight", "setting": "AsPC-1 cells", "value": "0.489 ± 0.101", "unit": "g"}, {"measurement": "Body weight, Day 0", "setting": "[4]; Day 0, i.v., nab-paclitaxel 5, irinotecan HCl 50, SNB-101 low dose 10/15.9 mg/kg/day (SN-38/irinotecan HCl)", "value": "21.3 ± 0.9", "unit": "g"}, {"measurement": "Body weight, Day 3", "setting": "[4]; Day 3, i.v., nab-paclitaxel 5, irinotecan HCl 50, SNB-101 low dose 10/15.9 mg/kg/day", "value": "22.1 ± 1.1", "unit": "g"}, {"measurement": "Body weight, Day 7", "setting": "[4]; Day 7, i.v., nab-paclitaxel 5, irinotecan HCl 50, SNB-101 low dose 10/15.9 mg/kg/day", "value": "22.8 ± 1.1", "unit": "g"}, {"measurement": "Body weight, Day 11", "setting": "[4]; Day 11, i.v., nab-paclitaxel 5, irinotecan HCl 50, SNB-101 low dose 10/15.9 mg/kg/day", "value": "22.9 ± 1.2", "unit": "g"}, {"measurement": "Body weight, Day 14", "setting": "[4]; Day 14, i.v., nab-paclitaxel 5, irinotecan HCl 50, SNB-101 low dose 10/15.9 mg/kg/day", "value": "23.4 ± 1.2", "unit": "g"}, {"measurement": "Body weight, Day 17", "setting": "[4]; Day 17, i.v., nab-paclitaxel 5, irinotecan HCl 50, SNB-101 low dose 10/15.9 mg/kg/day", "value": "22.9 ± 1.2", "unit": "g"}, {"measurement": "Body weight, Day 21", "setting": "[4]; Day 21, i.v., nab-paclitaxel 5, irinotecan HCl 50, SNB-101 low dose 10/15.9 mg/kg/day", "value": "22.6 ± 1.2", "unit": "g"}, {"measurement": "Body weight, Day 22", "setting": "[4]; Day 22 (autopsy), i.v., nab-paclitaxel 5, irinotecan HCl 50, SNB-101 low dose 10/15.9 mg/kg/day", "value": "21.7 ± 1.3", "unit": "g"}, {"measurement": "weight loss rate compared to G1 (vehicle group)", "setting": "[4]; day 22, nab-paclitaxel 5, irinotecan HCl 50, SNB-101 low dose 10/15.9 mg/kg/day", "value": 10.0, "unit": "%"}]}]}
